pIC50: −log10 of the molar value.
Key:
[1] = tested on: parent CT26 cell line (ATCC #CLR-2326); assay: IC50 in original parent CT26 cell line; assay type: cell-based, Murine; conditions: Mus musculus
Source text: (§1) Two clones of CT26 colon cancer and D2F2 breast cancer cells, respectively, have acquired chemoresistance (see FIG. 1, Panel C).

[2] = tested on: CT26 colon carcinoma cells; assay: nuclear apoptosis by Hoechst-33342 dye staining in chemoresistant CT26 clone; assay type: cell-based, Murine; conditions: resistant CT26 clone, 48 hours
Description: (§2) Murine CT26 and D2F2 carcinoma cells were cultured in the presence of either 1% DMSO, etoposide, 5-fluorouracil, doxorubicin, vinblastine or paclitaxel (Sigma, St. Louis, Mo.) at the concentrations indicated. After 48 hours, apoptotic nuclei were counted after incubation with the DNA-specific Hoechst-33342 dye (2 μM; Molecular Probes, Eugene, Oreg.).
as §1

[3] = tested on: D2F2 breast carcinoma cells; assay: prophylactic setting, orthotopic D2F2 tumor growth, with or without doxorubicin; assay type: in vivo, BALB/c mice
Description: Oral immunization, tumor cell challenge and treatment with doxorubicin. […] Med., 2002, 8: 1369-1375. Animals were challenged about 10 days later by subcutaneous (s.c.) injection of about 3×10^4 CT26 colon carcinoma cells in the left front flank or by orthotopic (o.t.) injection of about 3×10^5 D2F2 breast cancer cells in the left, second lowest mammary fat pad.
Tumor volume (in mm^3) was calculated by measuring the tumor in 2 dimensions (i.e., length and width, in millimeters) and calculating the volume as one half the length times the square of the width. In the therapeutic setting, the initial tumor cell inoculation was by intravenous (i.v.) injection of about 1×10^5 CT26 colon carcinoma cells followed about 3 and 10 days later by oral vaccinations with control vaccine or active DNA compositions. After about 18 days, the lungs were weighed (normal lung weight was about 0.2 g) and pulmonary tumor metastases were examined and scored by visual evaluation assessing the percentage of lung surface covered by fused metastases as follows: score of 0 for 0% coverage, score of 1 for less than about 20% coverage, score of 2 for about 20-50% coverage, score of 3 for greater than about 50% of lung surface covered. Treatment with doxorubicin was performed in groups of mice with about 10 mg/kg doxorubicin (Sigma) administered i.v., 5, 10 and 15 days after tumor challenge. […]

[4] = tested on: D2F2 breast carcinoma cells; assay: nuclear apoptosis by Hoechst-33342 dye staining in resistant D2F2 cells; assay type: cell-based, Murine
Description: as §2, §1

O=c1[nH]cc(F)c(=O)[nH]1 [5-FU, 5-fluorouracil]
pIC50 [1]: ~5.73 | nuclear apoptosis (Hoechst-33342 dye staining) ([2]; concentration as high as 100 μM): not able to induce nuclear apoptosis

COc1cccc2c1C(=O)c1c(O)c3c(c(O)c1C2=O)C[C@@](O)(C(=O)CO)C[C@@H]3O[C@H]1C[C@H](N)[C@H](O)[C@H](C)O1 [doxorubicin]
tumor growth ([3]; orthotopic D2F2, doxorubicin or PBS 5, 10 and 15 days after challenge): only able to suppress, but not eradicate tumor growth | complete rejection of tumors ([3]; single agent alone): not observed | sensitivity of D2F2 cells ([4]; FIG. 1, Panel C): partially sensitive | nuclear apoptosis (Hoechst-33342 dye staining) ([4]; resistant D2F2 cells, 48 hours, highest concentration of 1 μM): able to induce nuclear apoptosis

CC[C@]1(O)C[C@@H]2CN(CCc3c([nH]c4ccccc34)[C@@](C(=O)OC)(c3cc4c(cc3OC)N(C)[C@H]3[C@@](O)(C(=O)OC)[C@H](OC(C)=O)[C@]5(CC)C=CCN6CC[C@]43[C@@H]65)C2)C1 [vinblastine]
nuclear apoptosis (Hoechst-33342 dye staining) ([2]; only at 5 μM): slight apoptotic effect

Reference: patent publication US20090253778A1, “DNA composition against tumor stromal antigen FAP and methods of use thereof” (priority 2006, published 2009)
